According to US8946263B2, “Compositions and methods for modulating circadian synchronization” (Max-Planck-Gesellchaft zur Forderung der Wissenschaften E.V., priority 2011, dated 2015):

Key:
[1] = tested on: corticosterone excretion rhythms; experiment: Fecal corticosterone excretion rhythm after 16 days of timed metyrapone injection; assay type: in vivo, mouse; conditions: for direction of shift of the peak of maximum glucocorticoid levels: mice
Procedure: Fecal samples were collected at 4-hour intervals before and after the jet lag treatment using wheel cages equipped with wire grid floors. To rule out stress-induced effects, animals were transferred to the collection cages 3 days prior to the first sampling interval. Fecal samples were stored at −80° C. Corticoid metabolite extraction and quantification by RIA (MP Biomedicals) were performed as described previously (Abraham et al. 2006).
Administration of metyrapone (Sigma-Aldrich) to WT mice was done for 16 days prior to the jet lag procedure (see above). Two sets of 24 animals each received metyrapone dissolved in water (100 mg/kg body weight per day) via i.p. injection at different times during the day. Injections were stopped 1 day before the LD shift (day 0). METD animals were injected during the first half of their rest phase at ZT3; METN animals received metyrapone injections at the beginning of their activity phase at ZT12. At day 16 of the treatment (day-1 relative to LD shift), fecal samples were collected to analyze the phase shift of corticoid excretion rhythms. Saline-treated (0.9% NaCl) WT littermates injected at ZT3 or ZT12 were used as controls for all experiments.
Peak time analyses were performed using Prism software (GraphPad). A sine wave equation, y=BaseLine+Amplitude sin(frequency x+PhaseShift), was fitted to the data. For gene expression and corticosterone data, frequency was fixed to 24 hours. Maxima were calculated using the axis section of the second derivative. To determine PS50, a sigmoid dose-response curve with variable slope was fitted to the sine wave maxima (corticosterone), y=Bottom+(Top−Bottom) (1+10(log PS50−x) HillSlope), or onset time points (locomotor activity) for each group. To test whether the best-fit PS50 values differed between data sets, data were compared by extra sum-of-squares F test using a P value of less than 0.05 as a threshold. Maxima of gene expression or corticosterone at specific days were compared by Mann-Whitney rank sum test, even if normality tests and equal variance tests were positive, reflecting the small sample sizes of 3-9. A statistically significant difference was assumed with P values less than 0.05. Correlations between phase-shift activity onsets and corticosterone maxima were performed using linear regression. The quality of fit was estimated by r determination. Departure from linearity was tested with runs test. Normality and homoscedasticity tests were passed for all data sets. Diurnal variation of expression data was tested using Fourier analysis with CircWave version 3.3 software (Oster et al. 2006) and threshold values of 0.05 for α and a period of 24 hours.

WT (C57BL/6J) mice [2] = experiment: Behavioral reentrainment (wheel-running activity onsets) after 6-hour phase advance of the LD cycle; assay type: in vivo, mouse
Procedure: (§1) Handling and activity measurements during experiments were performed as described previously (Jud et al. 2005). Wheel-running activity was analyzed using ClockLab software (Actimetrics). For the jet lag experiment (6-hour rapid advance or 8-hour rapid delay of the LD cycle), animals were single-housed in running wheel-equipped cages for 2 weeks or longer under LD conditions (lights on, ZT0; light intensities of 350 lux). On day 1 of the jet lag, the lights-off time (ZT12) was shifted from 6 pm to […] (phase advance paradigm) or from 6 pm to 2 am (phase delay paradigm). Using a short day protocol, we defined day 1 as the first advanced dark period (similar to Davidson et al. 2009, who used a short night approach in which the first day is defined by the deemed light period; but different from Yamazaki et al. 2000, where the following day—corresponding to day 2 in our study—was referred to as day 1). […] Animals were synchronized to the new LD regimen for another 2 weeks during which time of wheel-running activity was recorded. Individual activity onsets before and after the shift were determined by visual inspection and averaged over the whole cohort to asses reentrainment rates. […]
(§2) Peak time analyses were performed using Prism software (GraphPad). […] Maxima were calculated using the axis section of the second derivative. […]

WT (C57BL/6J) mice [3] = experiment: Behavioral reentrainment (wheel-running activity onsets) after 8-hour phase delay of the LD cycle; assay type: in vivo, mouse
Procedure: as §1, §2

WT (C57BL/6J) mice [4] = experiment: Observations during the 16-day metyrapone injection period before jet lag; assay type: in vivo, mouse; conditions: for effect on the onset of wheel-running activity: during injection period
Procedure: Handling and activity measurements during experiments were performed as described previously (Jud et al. 2005). Wheel-running activity was analyzed using ClockLab software (Actimetrics). For the jet lag experiment (6-hour rapid advance or 8-hour rapid delay of the LD cycle), animals were single-housed in running wheel-equipped cages for 2 weeks or longer under LD conditions (lights on, ZT0; light intensities of 350 lux). On day 1 of the jet lag, the lights-off time (ZT12) was shifted from 6 pm to […] (phase advance paradigm) or from 6 pm to 2 am (phase delay paradigm). Using a short day protocol, we defined day 1 as the first advanced dark period (similar to Davidson et al. 2009, who used a short night approach in which the first day is defined by the deemed light period; but different from Yamazaki et al. 2000, where the following day—corresponding to day 2 in our study—was referred to as day 1). For the delay experiment (8-hour rapid delay of the LD cycle), animals were housed in running wheel—equipped single cages for 2 weeks or longer under LD conditions (lights on, ZT0; light intensities of 50 lux). On day 1 of the jet lag, the lights-off time (ZT12) was shifted from 12 pm to 8 pm. Day 1 was defined here as the day with the first delayed dark period. Animals were synchronized to the new LD regimen for another 2 weeks during which time of wheel-running activity was recorded. Individual activity onsets before and after the shift were determined by visual inspection and averaged over the whole cohort to asses reentrainment rates. Administration of metyrapone (Sigma-Aldrich) to WT mice was done for 16 days prior to the jet lag procedure (see above). Two sets of 24 animals each received metyrapone dissolved in water (100 mg/kg body weight per day) via i.p. injection at different times during the day. Injections were stopped 1 day before the LD shift (day 0). METD animals were injected during the first half of their rest phase at ZT3; METN animals received metyrapone injections at the beginning of their activity phase at ZT12. […]

hamsters = conditions: cited from earlier work
[5] = METD (ZT3 injection, 16 days before shift) vs SALD
[6] = METN (ZT12 injection, 16 days before shift) vs SALN

SMILES | amplitude of glucocorticoid excretion rhythms ([1]; METD and METN, 16 days of treatment, data not shown) | forward shift of corticosterone maximum relative to SALD control ([1]; METD: 100 mg/kg/day i.p. at ZT3 (rest phase) for 16 days, day prior to phase shift) [h] | backward shift of peak corticosterone relative to SALN ([1]; METN: 100 mg/kg/day i.p. at ZT12 (beginning of activity phase) for 16 days) [h] | direction of shift of the peak of maximum glucocorticoid levels ([1]; administration at 6 pm (first half of the active phase)) | direction of shift of the peak of maximum glucocorticoid levels ([1]; administration at 9 am (first half of rest phase)) | activity resetting after 6-hour phase advance (WT (C57BL/6J) mice [2]; [5]) | activity resetting after 6-hour phase advance (WT (C57BL/6J) mice [2]; [6]) | behavioral adaptation after 8-hour phase delay (WT (C57BL/6J) mice [3]; [5]) | behavioral adaptation after 8-hour phase delay (WT (C57BL/6J) mice [3]; [6]) | effect on the onset of wheel-running activity (WT (C57BL/6J) mice [4]; METD mice) | effect on the onset of wheel-running activity (WT (C57BL/6J) mice [4]; METN mice) | side effect of injection (WT (C57BL/6J) mice [4]; daily i.p. injection, 100 mg/kg, 16 days) | circadian responses to light (hamsters) | reentrainment after phase advances of the LD cycle (hamsters)
CC(C)(C(=O)c1cccnc1)c1cccnc1 [metyrapone, 2-methyl-1,2-di-3-pyridyl-1-propanone] | did not significantly change | 1 | 1 | backward shift | forward shift | accelerated activity resetting | reentrained slower | decelerated adaptation | more rapid behavioural adaptation | no effect | only minor effect | transient drowsiness |  | 
CCCc1nn(C)c2c(=O)[nH]c(-c3cc(S(=O)(=O)N4CCN(C)CC4)ccc3OCC)nc12 [sildenafil] |  |  |  |  |  |  |  |  |  |  |  |  | enhances circadian responses to light | accelerates reentrainment
